The results in this text go back to patent publication US20080004302A1, “Novel Compounds” (ASTRAZENECA AB, priority 2006, published 2008).

Where two headings read alike, the source gives them in different places.

In one series the target is T1, FGFR kinase domain (Homo sapiens, UniProt P11362, C488A/C584S).
T1 construct: FGFR kinase domain (amino acids 458-765, C488A, C584S) N-terminally fused to a His6-tag; made in house
Briefly: Kinase assay (ELISA) for inhibition of FGFR activity. In kind it is biochemical. Here is the method:
To determine inhibition of FGFR activity, kinase assays were conducted using ELISA (Enzyme-Linked Immunosorbent Assay) technology.
Kinase activity assays were performed in 384-well polypropylene plates (Matrix, 4311) with a total volume of 40 μl in each well. Each well was coated with 2 μg of polyEAY substrate (Sigma, P3899) at 4° C. overnight. The plates were then washed once with 100 μl PBS and once with 100 μl 50 mM HEPES (pH 7.4) prior to the addition of the kinase assay reagents. […] Various concentrations of test compounds were each added in 5% (v/v) DMSO to yield a final assay DMSO concentration of 1.25% (v/v). The kinase reactions were incubated at room temperature for 45 minutes and stopped by washing the plate three times with 100 μl PBS plus 0.05% Tween. […] Following this, the plates were then washed repeatedly with 100 μl PBS plus 0.05% Tween to remove all traces of the antibody solution. 40 μl of 50 μg/ml 3,3′,5,5′-Tetramethylbenzidine (Sigma, T2885), 0.05M phosphate-citrate buffer, containing 0.03% sodium perborate was added to each well and the plates incubated at room temperature for twelve minutes. The colour reaction was stopped by the addition of 20 μl 2M H2SO4 and the plates read at 450 nm on a Spectrafluor Plus (Tecan).

The target in series [1] is T2, FGFR1 IIIc (Homo sapiens, UniProt P11362).
T2 construct: host or cells: Cos-1
T2 sequence (P11362 22-822): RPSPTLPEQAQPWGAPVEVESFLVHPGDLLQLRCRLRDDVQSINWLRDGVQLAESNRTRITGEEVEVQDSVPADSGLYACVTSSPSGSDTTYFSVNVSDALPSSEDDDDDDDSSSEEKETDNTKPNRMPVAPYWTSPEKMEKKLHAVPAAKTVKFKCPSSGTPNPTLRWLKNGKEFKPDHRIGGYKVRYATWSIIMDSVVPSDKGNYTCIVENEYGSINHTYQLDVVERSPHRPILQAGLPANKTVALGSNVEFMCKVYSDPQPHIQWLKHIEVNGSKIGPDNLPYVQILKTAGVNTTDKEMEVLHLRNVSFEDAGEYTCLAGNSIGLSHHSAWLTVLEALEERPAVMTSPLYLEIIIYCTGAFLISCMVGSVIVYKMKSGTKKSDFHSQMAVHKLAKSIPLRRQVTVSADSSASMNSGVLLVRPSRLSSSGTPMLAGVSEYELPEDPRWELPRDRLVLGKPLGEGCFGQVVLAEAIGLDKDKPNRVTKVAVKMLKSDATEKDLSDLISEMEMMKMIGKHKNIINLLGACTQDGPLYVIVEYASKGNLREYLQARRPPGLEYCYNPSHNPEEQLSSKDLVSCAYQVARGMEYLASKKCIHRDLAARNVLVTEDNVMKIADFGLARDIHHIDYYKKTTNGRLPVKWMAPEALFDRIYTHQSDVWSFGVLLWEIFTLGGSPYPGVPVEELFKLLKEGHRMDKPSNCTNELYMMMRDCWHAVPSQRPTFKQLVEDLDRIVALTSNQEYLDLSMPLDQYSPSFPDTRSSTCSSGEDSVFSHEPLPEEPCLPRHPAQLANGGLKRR
Briefly: Cell based inhibition of transiently expressed FGFR1 IIIc phosphorylation via use of ECHO technology (Cos-1 cells). The note with it: Cos-1 cells, phospho-FGFR1, ECHO dosing; upper bound of bin; read-out: IC50.

In another series the target is FGFR1 kinase (Homo sapiens, UniProt P11362). The experiment in a line: Kinase assay (using Caliper technology). The note with it: FGFR1 kinase, Caliper; upper bound of bin; read-out: IC50. The class given is biochemical. An outline of the steps:
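Human FGFR1 kinase activity measured with a 13-mer fluorescently tagged FGFR1-specific peptide substrate; compounds serially diluted in 5% (v/v) DMSO. Reactions ran 1.5 h at room temperature, stopped with EDTA-containing HEPES pH 7.5 buffer. Phosphorylated and unphosphorylated peptide separated by microfluidic mobility shift.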

Series [2] deals with T2, FGFR1 IIIc. The experiment in a line: Cell based inhibition of transiently expressed FGFR1 IIIc phosphorylation (Cos-1 cells). As to conditions: Cos-1 cells, phospho-FGFR1; upper bound of bin; read-out: IC50.
In series [3] the target is T3, human cytochrome P450 (CYP) 1A2 (Homo sapiens, UniProt P05177).
T3 sequence (P05177 1-516): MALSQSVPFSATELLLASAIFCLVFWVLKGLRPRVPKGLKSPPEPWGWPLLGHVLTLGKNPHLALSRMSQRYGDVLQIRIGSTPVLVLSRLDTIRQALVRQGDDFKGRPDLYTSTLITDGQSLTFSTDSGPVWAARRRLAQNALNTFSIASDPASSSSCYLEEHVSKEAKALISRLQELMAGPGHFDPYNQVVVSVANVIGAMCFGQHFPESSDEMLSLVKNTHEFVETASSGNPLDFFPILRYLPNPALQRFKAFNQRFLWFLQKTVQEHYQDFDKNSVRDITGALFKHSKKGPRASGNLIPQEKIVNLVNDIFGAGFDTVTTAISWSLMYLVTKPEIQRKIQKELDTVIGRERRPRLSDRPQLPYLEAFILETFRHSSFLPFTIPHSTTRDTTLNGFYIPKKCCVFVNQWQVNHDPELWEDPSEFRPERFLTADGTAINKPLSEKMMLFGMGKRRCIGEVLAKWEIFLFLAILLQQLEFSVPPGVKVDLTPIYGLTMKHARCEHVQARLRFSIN
Protocol: (§1) The inhibitory potential (IC50) of test compounds against 5 human cytochrome P450 (CYP) isoforms (IA2, 2C9, 2C19, 3A4 and 2D6) was assessed using an automated fluorescent end point in vitro assay modified from Crespi (Crespi and Stresser, 2000). Microsomal subcellular fractions prepared from Yeast cell lines expressing each human CYP isoform were used as an enzyme source in this assay. The activity of the 5 major human CYPs was determined from the biotransformation of a number of coumarin substrates to fluorescent metabolites, in the presence of NADPH. […] Stock solutions of each CYP, with its respective substrate, were prepared in phosphate buffer pH7.4 (see Table 1) and 178 μl was added to the well of a black solid, flat bottom, 300 μl 96 well microtitre plate (Coming Costar). […] After pre-incubating at 37° C. for 5 min the reactions were started with addition of NADPH (20 μl, concentration shown in Table 1). The final solvent content in each incubation was <=2% (1% from the test compound and a maximum of 1% from the substrate). The appropriate solvent controls and substrate blanks were included in each experiment to assess control activity and identify any inherent fluorescence due to the test compounds. In addition, known inhibitors of each CYP were included as positive controls (see Table 3 for inhibitor concentrations and expected IC50 ranges). The reactions were stopped at defined timepoints (see Table 1) by quenching with 100 μl of solvent (acetonitrile:0.5M Tris buffer 80:20 v/v). The plates were read on a fluorimeter (Spectrafluor Plus) at the appropriate excitation and emission wavelengths (listed in Table 2) and the percent activity, corrected for control, was plotted against the test compound concentration.

Series [4] has as its target human cytochrome P450 (CYP) 2C19 (Homo sapiens, UniProt P33261).
Protocol: as §1
Another series has as its target CYP2D6 (Homo sapiens, UniProt P10635). The experiment in a line: in vitro. The note with it: pH 7.4, probe coumarin substrate (not named).
The target of series [5] is T4, human cytochrome P450 (CYP) 3A4 (Homo sapiens, UniProt P08684).
T4 construct: made in house; host or cells: yeast (microsomal fraction)
T4 sequence (P08684 whole entry): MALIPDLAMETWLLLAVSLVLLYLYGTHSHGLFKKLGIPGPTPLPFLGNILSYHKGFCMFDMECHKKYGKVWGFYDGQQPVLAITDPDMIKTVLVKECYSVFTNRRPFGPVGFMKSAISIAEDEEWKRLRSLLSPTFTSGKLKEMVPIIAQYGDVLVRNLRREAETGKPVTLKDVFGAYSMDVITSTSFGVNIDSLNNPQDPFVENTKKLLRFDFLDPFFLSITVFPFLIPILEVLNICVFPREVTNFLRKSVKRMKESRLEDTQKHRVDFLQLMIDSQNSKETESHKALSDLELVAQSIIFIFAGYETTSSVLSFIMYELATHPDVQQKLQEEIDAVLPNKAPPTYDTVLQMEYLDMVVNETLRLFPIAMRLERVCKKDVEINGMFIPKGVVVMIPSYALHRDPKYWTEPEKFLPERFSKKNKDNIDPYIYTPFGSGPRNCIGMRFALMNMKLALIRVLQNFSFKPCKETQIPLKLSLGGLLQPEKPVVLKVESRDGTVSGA
The experiment in a line: Cytochrome P450 inhibition assay, 3A4. In kind it is in vitro ADME. The note with it: test concentrations 0.1-10 μM.
Protocol: as §1

Series [6] deals with human cytochrome P450 (CYP) 2C9 (Homo sapiens, UniProt P11712).
human cytochrome P450 (CYP) 2C9, sequence (P11712 whole entry): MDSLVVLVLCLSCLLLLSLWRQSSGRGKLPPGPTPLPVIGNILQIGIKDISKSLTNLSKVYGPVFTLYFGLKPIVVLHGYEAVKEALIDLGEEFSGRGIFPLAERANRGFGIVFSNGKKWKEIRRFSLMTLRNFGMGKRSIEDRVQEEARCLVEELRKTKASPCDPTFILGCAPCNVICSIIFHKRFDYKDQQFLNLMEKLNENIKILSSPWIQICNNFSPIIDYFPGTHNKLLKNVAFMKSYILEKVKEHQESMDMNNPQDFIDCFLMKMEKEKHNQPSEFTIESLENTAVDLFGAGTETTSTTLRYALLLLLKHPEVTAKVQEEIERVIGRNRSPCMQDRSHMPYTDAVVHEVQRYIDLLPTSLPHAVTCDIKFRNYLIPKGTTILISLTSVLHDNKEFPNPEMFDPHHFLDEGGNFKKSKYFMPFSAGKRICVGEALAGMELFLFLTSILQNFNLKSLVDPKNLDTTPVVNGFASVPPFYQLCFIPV
Protocol: as §1
The target in the next series is T5, human IGF1R (Homo sapiens, UniProt P08069).
T5 construct: expressed in transfected cells; host or cells: R+ cells (R- mouse fibroblasts transfected with human IGF1R)
T5 sequence (P08069 31-1367): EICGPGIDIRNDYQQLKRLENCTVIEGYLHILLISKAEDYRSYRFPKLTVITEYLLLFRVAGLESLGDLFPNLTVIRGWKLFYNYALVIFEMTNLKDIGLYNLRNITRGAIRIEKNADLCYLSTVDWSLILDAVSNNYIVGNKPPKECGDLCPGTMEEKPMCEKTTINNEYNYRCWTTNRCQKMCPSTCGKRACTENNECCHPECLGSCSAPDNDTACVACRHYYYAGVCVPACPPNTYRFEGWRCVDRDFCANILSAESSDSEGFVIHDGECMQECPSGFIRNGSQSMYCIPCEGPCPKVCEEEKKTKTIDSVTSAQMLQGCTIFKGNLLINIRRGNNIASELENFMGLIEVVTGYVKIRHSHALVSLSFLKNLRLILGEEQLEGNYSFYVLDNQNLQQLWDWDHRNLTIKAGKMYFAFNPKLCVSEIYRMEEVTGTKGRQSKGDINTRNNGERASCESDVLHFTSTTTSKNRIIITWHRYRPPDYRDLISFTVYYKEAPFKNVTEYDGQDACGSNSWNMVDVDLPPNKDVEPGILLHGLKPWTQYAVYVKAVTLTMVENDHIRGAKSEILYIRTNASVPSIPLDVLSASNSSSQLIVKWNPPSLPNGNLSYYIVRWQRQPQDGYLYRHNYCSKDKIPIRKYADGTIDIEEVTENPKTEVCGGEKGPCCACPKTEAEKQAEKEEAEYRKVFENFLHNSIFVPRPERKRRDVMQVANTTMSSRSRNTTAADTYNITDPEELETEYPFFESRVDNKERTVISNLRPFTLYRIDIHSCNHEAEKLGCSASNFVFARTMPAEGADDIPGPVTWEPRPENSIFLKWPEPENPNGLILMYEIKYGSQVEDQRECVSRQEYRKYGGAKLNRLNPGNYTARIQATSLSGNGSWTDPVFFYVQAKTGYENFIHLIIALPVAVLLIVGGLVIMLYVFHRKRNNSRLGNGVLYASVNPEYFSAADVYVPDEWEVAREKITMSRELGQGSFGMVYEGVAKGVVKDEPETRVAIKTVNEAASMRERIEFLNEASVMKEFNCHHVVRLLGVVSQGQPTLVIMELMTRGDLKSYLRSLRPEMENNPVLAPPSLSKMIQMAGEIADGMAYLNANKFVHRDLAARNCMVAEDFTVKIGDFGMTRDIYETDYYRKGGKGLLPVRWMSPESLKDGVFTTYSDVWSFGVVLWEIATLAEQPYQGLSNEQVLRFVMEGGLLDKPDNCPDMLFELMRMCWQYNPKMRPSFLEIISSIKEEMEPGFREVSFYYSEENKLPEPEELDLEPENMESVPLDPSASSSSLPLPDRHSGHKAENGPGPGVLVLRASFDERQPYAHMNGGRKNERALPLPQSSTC
Briefly: Inhibition of insulin-like growth factor-1 receptor phosphorylation in R+ cells. The note with it: 30 nM IGF1, read-out: IGF cell class. The class given is cell-based.

The subject of the next series is Erk phosphorylation. The experiment in a line: Growth factor (bFGF) stimulated Erk phosphorylation in NIH 3T3 cells. As to conditions: Mus musculus, NIH3T3, NIH 3T3 cells, 3 ng/ml bFGF.
[7] abbreviates: FGFR inhibition tests, ELISA kinase assay, read-out: Activity class.

T1 sequence (P11362 458-765 C488A/C584S): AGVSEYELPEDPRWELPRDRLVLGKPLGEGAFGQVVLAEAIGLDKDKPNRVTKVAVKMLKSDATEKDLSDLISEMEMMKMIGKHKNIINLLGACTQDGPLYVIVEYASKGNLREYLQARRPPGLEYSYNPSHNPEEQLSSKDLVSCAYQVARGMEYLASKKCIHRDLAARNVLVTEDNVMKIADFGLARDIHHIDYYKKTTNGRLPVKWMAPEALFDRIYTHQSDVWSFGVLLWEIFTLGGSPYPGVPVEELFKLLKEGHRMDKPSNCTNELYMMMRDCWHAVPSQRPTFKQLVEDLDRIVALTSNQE
FGFR1 kinase, sequence (P11362 22-822): as the sequence (P11362 22-822) above
human cytochrome P450 (CYP) 2C19, sequence (P33261 whole entry): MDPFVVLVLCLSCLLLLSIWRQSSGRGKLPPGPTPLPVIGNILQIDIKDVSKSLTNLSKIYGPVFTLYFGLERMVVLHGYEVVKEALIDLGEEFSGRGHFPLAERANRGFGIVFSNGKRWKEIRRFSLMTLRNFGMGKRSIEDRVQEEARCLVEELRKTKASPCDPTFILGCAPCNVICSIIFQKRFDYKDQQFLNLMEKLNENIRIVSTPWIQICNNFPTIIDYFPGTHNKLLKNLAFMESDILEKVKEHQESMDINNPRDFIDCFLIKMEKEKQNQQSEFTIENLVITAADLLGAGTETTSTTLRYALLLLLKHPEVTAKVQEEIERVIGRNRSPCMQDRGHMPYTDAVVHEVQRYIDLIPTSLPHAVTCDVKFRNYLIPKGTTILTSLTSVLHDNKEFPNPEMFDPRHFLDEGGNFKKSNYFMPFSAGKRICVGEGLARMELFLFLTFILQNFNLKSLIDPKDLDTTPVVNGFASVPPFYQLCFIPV
CYP2D6, sequence (P10635 whole entry): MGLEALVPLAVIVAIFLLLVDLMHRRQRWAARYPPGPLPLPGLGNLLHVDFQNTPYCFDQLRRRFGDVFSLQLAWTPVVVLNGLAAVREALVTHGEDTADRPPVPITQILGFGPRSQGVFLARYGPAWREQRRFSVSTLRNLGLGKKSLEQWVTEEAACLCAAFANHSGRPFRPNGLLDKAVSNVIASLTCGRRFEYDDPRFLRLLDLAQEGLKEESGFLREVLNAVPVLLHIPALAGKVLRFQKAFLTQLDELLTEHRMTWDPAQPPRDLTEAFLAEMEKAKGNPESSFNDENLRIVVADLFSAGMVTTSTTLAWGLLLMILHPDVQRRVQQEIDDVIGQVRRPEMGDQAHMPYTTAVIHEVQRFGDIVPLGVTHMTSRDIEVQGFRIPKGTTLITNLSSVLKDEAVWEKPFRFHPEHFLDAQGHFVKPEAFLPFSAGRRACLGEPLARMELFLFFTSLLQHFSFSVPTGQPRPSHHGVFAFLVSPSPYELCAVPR
Protocol for CYP2D6: as §1

On to `COc1cccc(CCc2cc(Nc3ccnc(NCc4cc(C5CC5)no4)n3)n[nH]2)c1` [Example 28, N-[(3-cyclopropyl-1,2-oxazol-5-yl)methyl]-N′-[5-[2-(3-methoxyphenyl)ethyl]-2H-pyrazol-3-yl]pyrimidine-2,4-diamine], for which the IC50 is 100 to 1000 nM at FGFR kinase domain (setting [7]), below 200 nM on FGFR1 IIIc [1], below 200 nM at FGFR1 kinase and below 200 nM at FGFR1 IIIc [2].
As for `Cc1cc(CNc2ncc(Cl)c(Nc3cc(C)[nH]n3)n2)on1` [(b), 5-chloro-N-[(3-methylisoxazol-5-yl)methyl]-N′-(5-methyl-2H-pyrazol-3-yl)pyrimidine-2,4-diamine], the IC50 was 460 nM in series [3]; above 10000 nM in series [4]; above 10000 nM at CYP2D6; 4400 nM in series [5]; 1120 nM in [6].
As for `COc1cccc(CCc2cc(Nc3ccnc(NCc4cc(C(N)=O)no4)n3)[nH]n2)c1` [Example 29, 5-[[[4-[[5-[2-(3-methoxyphenyl)ethyl]-2H-pyrazol-3-yl]amino]pyrimidin-2-yl]amino]methyl]-1,2-oxazole-3-carboxamide], the IC50 on FGFR kinase domain (setting [7]) is below 100 nM; at FGFR1 kinase it was below 200 nM; on FGFR1 IIIc [2], below 10000 nM; at human IGF1R it was above 10000 nM.
`COc1cc(COc2cc(Nc3ccnc(NCc4cc(C)no4)n3)n[nH]2)cc(OC)c1` [Example 73, N′-[5-[(3,5-dimethoxyphenyl)methoxy]-1H-pyrazol-3-yl]-N-[(3-methyl-1,2-oxazol-5-yl)methyl]pyrimidine-2,4-diamine]: the IC50 on FGFR kinase domain (setting [7]) is below 100 nM; on FGFR1 IIIc [1] it was below 200 nM; at FGFR1 kinase it was below 200 nM; on FGFR1 IIIc [2], below 200 nM; in the series on Erk phosphorylation, below 200 nM; at human IGF1R, 1000 to 10000 nM.
Regarding `COc1cccc(CCc2cc(Nc3ccnc(NCc4cc(C)no4)n3)n[nH]2)c1` [Example 27, N′-[5-[2-(3-methoxyphenyl)ethyl]-2H-pyrazol-3-yl]-N-[(3-methyl-1,2-oxazol-5-yl)methyl]pyrimidine-2,4-diamine], the IC50 at FGFR kinase domain (setting [7]) is below 100 nM; at FGFR1 kinase, below 200 nM; at FGFR1 IIIc [2], below 200 nM; at human IGF1R, above 10000 nM.
As for `COc1cccc(CCc2cc(Nc3ccnc(NCc4cc(-c5ncccn5)no4)n3)[nH]n2)c1` [Example 33, N′-[5-[2-(3-methoxyphenyl)ethyl]-2H-pyrazol-3-yl]-N-[(3-pyrimidin-2-yl1,2-oxazol-5-yl)methyl]pyrimidine-2,4-diamine], the IC50 at FGFR kinase domain (stated after the ELISA results table, read-out: IC50) is 92 nM; on FGFR1 kinase, below 200 nM; in the series on Erk phosphorylation it was 518 nM; in the series on Erk phosphorylation (upper bound of bin) it was below 1000 nM; at human IGF1R it was above 10000 nM.
On to `Cc1cc(CNc2nccc(Nc3cc(OCc4ccccc4)[nH]n3)n2)on1` [Example 72, N-[(3-methyl-1,2-oxazol-5-yl)methyl]-N′-(5-phenylmethoxy-1H-pyrazol-3-yl)pyrimidine-2,4-diamine], for which the IC50 on FGFR kinase domain (setting [7]) was 100 to 1000 nM; in the series with Erk phosphorylation (upper bound of bin) it was below 1000 nM.
Regarding `Cc1cc(CNc2nccc(Nc3cc(OC(C)C)[nH]n3)n2)on1` [Example 66, N-[(3-methyl-1,2-oxazol-5-yl)methyl]-N′-(5-propan-2-yloxy-2H-pyrazol-3-yl)pyrimidine-2,4-diamine], the IC50 was below 100 nM on FGFR kinase domain (setting [7]); below 1000 nM on FGFR1 IIIc [1]; below 200 nM at FGFR1 kinase; below 1000 nM at FGFR1 IIIc [2]; below 200 nM with Erk phosphorylation; above 10000 nM on human IGF1R.
As for `CC(C)Oc1cc(Nc2ccnc(NCc3cc(C4CC4)no3)n2)n[nH]1` [Example 67, N-[(3-cyclopropyl-1,2-oxazol-5-yl)methyl]-N′-(5-propan-2-yloxy-2H-pyrazol-3-yl)pyrimidine-2,4-diamine], the IC50 on FGFR kinase domain (setting [7]) is below 100 nM; on FGFR1 IIIc [1] it was below 200 nM; on FGFR1 kinase, below 200 nM; at FGFR1 IIIc [2], below 200 nM; with Erk phosphorylation, below 200 nM; at human IGF1R, 1000 to 10000 nM.
Turning to `COc1cc(Nc2cc(OC(C)C)n[nH]2)nc(NCc2cc(C)no2)n1` [Example 70, 6-methoxy-N-[(3-methyl-1,2-oxazol-5-yl)methyl]-N′-(5-propan-2-yloxy-2H-pyrazol-3-yl)pyrimidine-2,4-diamine], the IC50 on FGFR kinase domain (setting [7]) is below 100 nM; at FGFR1 IIIc [1], below 200 nM; on FGFR1 kinase, below 200 nM; on human IGF1R, above 10000 nM.
Consider `Cc1cc(CNc2nc(C)cc(Nc3cc(OC(C)C)[nH]n3)n2)on1` [Example 68, 6-methyl-N-[(3-methyl-1,2-oxazol-5-yl)methyl]-N′-(5-propan-2-yloxy-1H-pyrazol-3-yl)pyrimidine-2,4-diamine], for which the IC50 at FGFR kinase domain (setting [7]) is below 100 nM; at FGFR1 IIIc [1] it was below 200 nM; at FGFR1 kinase, below 200 nM; on human IGF1R, above 10000 nM.
Regarding `c1cc(Nc2cc(C3CC3)[nH]n2)nc(NCc2cc(C3CC3)no2)n1` [Example 10, N-[(3-cyclopropyl-1,2-oxazol-5-yl)methyl]-N′-(5-cyclopropyl-2H-pyrazol-3-yl)pyrimidine-2,4-diamine], the IC50 is below 100 nM at FGFR kinase domain (setting [7]), below 200 nM at FGFR1 IIIc [1] and 100 to 1000 nM at human IGF1R.
With `COc1ccc2[nH]c([S+]([O-])Cc3ncc(C)c(OC)c3C)nc2c1` (stereo not drawn) [Omeprazole], the IC50 in series [4] lay within 1500 to 4600 nM.
Take `COc1ccc(CCc2cc(Nc3ccnc(NCc4cc(C)no4)n3)n[nH]2)cc1` [Example 24, N′-[5-[2-(4-methoxyphenyl)ethyl]-2H-pyrazol-3-yl]-N-[(3-methyl-1,2-oxazol-5-yl)methyl]pyrimidine-2,4-diamine]: the IC50 was 100 to 1000 nM on FGFR kinase domain (setting [7]), below 1000 nM at FGFR1 kinase, below 1000 nM at FGFR1 IIIc [2] and above 10000 nM at human IGF1R.
Consider `CCCc1cc(Nc2ccnc(NCc3cc(C)no3)n2)n[nH]1` [Example 6, N-[(3-methylisoxazol-5-yl)methyl]-N ′-(5-propyl-2H-pyrazol-3-yl)pyrimidine-2,4-diamine], for which the IC50 on FGFR kinase domain (setting [7]) was below 100 nM; on FGFR1 IIIc [1], below 200 nM; at human IGF1R, 100 to 1000 nM.
Turning to `Cc1cc(Nc2ccnc(NCc3cc(C4CC4)no3)n2)n[nH]1` [Example 3, N-[(3-cyclopropylisoxazol-5-yl)methyl]-N ′-(5-methyl-2H-pyrazol-3-yl)pyrimidine-2,4-diamine], the IC50 is below 100 nM on FGFR kinase domain (setting [7]); below 1000 nM on FGFR1 IIIc [1]; below 1000 nM on FGFR1 IIIc [2]; below 200 nM in the series on Erk phosphorylation; 1000 to 10000 nM at human IGF1R.
